Test results published in paper PMC12169104, “Towards the development of supramolecular self-associating amphiphiles as antibiofilm agents against Pseudomonas aeruginosa and Candida albicans biofilms” (Journal of Materials Chemistry. B, 2025).
Where “and” joins values, the source holds several entries; their conditions need not be identical. Equal values may be shown once.

Assays:
[1] = Calcein loaded vesicle leakage (lysis) assay; details: 298 K, PBS buffer 5% EtOH
Protocol: To gauge the activity and selectivity of 1–5 and a–j against microbial membranes, a series of synthetic model vesicle systems were prepared, containing a variety of common bacterial membrane phospholipid headgroups: (i) phosphatidylglycerol (PG) only; (ii) phosphatidylethanolamine (PE) : PG 3 : 1 and; (iii) PE : PG 1 : 1.[50] Following our previous work in this area, we first quantified the ability of 1–5 and co-formulations a–j to lyse the aforementioned synthetic model phospholipid vesicle systems.[49] […] Here the fluorescent dye calcein was loaded into synthetic vesicles at a concentration where the dye self-quenches (70 mM). When the vesicle is lysed, the calcein is released to the extravesicular solution, effectively reducing calcein concentration to a point where the dye no longer undergoes self-quenching. Through comparison to a positive control experiment, in which 100% vesicle lysis was achieved through the addition of 2% X-100 Triton, the proportion of vesicles to undergo lysis in the presence or absence of SSA can be calculated. The data was then fitted to the Hill or linear equation to determine the effective concentration of SSA needed to lyse 50% of the vesicles present in solution (EC50) (Section S14, ESI ^†).[51] […]
(§1) Preparation of vesicles: All lipids were purchased as powder stocks from Avanti Polar Lipids. Lipid vesicles were prepared according to standard procedures. Each phospholipid (~ 20 mg) was dissolved in chloroform: methanol 3:1 (~ 10 mL) and the solvent was removed under reduced pressure. The thin film of dried lipid was further dried in vacuo overnight. Lipid films were resuspended in the desired buffer and subjected to 10 freeze-thaw cycles in liquid nitrogen and extruded 19 times through a 200 nm polycarbonate membrane.
Preparation of calcein loaded vesicles:2 Lipid films were resuspended in calcein dye (70 mg calcein, 865 µL deionized H2O, 135 µL NaOH (2 M), with NaOH added dropwise until calcein dissolved) and subjected to 10 freeze-thaw cycles in liquid nitrogen and extruded 19 times through a 200 nm polycarbonate membrane. The suspension was run down a size exclusion column packed with sephadex G-50 using 1 X PBS. The hydrodynamic dimeter of the lipids was monitored using an Anton Paar LitesizerTM 500 to ensure the separation of free and entrapped calcein. Phospholipid concentration was adjusted to 60 µM for vesicle leakage experiments.
Vesicle leakage assay: Black bottom 96-well plates were prepared by serially diluting desired SSA in a EtOH: H2O 1:19 solution across the plate, the appropriate lipid solution (100 µL, 60 µM) was added to each well to give a total well volume of 200 µL. A solution of 2 % Triton X-100 was used for a 100 % lysis control and a EtOH: H2O 1:19 solution was used as a 0 % lysis control. Fluorescent measurements were taken at 25 °C using an excitation value of 495 nm and an optimised gain of 800. Data were acquired in endpoint mode. […]
For fluorescent labelling, the desired vesicles were pre-incubated with DPH (10 µM) at 60 °C for 1 hour.
Membrane fluidity assay: Black bottom 96-well plates were prepared by serially diluting desired SSA in a EtOH: H2O 1:19 solution across the plate, the appropriate DPH labelled vesicles (100 µL, 60 µM) were added to each well to give a total well volume of 200 µL. FP measurements were taken at 25 °C using a 355 nm filter for excitation and a 430 m for emission. […]
Figure S168 – Average (n=3) […] readings of calcein loaded PE:PG 3:1 lipid vesicles (λem = 515 nm) following the addition of j at varying concentrations. Lysis value is triton (1 %). Blue = 1 minute, purple = 5 minutes, pink = 10 minutes, orange = 15 minutes, red = 20 minutes. Error = standard […]
Section S14: Determination of vesicle lysis EC50 values
Data was originally fitted to the Hill equation using origin software. If the fitting of these vesicle lysis data to the Hill equation failed then the data were fitted to a linear line of best fit to estimate EC50 […]
above 0.1 mM. […]

[2] = Quantitative 1H NMR spectroscopy (higher order self-association); assay type: physicochemical; details: D2O:EtOH 19:1, 2.78 mM, 298 K; proportion of compound to become NMR silent
[3] = Membrane fluidity fluorescence polarization (DPH) assay; details: SSA 1.5 mM, HEPES buffer pH 7.4, 298 K, n = 3, error = SD
Description: Next, we sought to understand the effects of 1, 2, 4 and 5 and a, c, d, f, g, j on synthetic vesicle phospholipid membrane fluidity using a fluorescence polarization (FP) assay.[52] Here, the fluorescent reporter dye 1,6-diphenyl-1,3,5-hexatriene (DPH) is incorporated into the vesicles phospholipid bilayer. As membrane fluidity is increased, the DPH reporter dye moves more freely within the phospholipid bilayer environment, resulting in a decreased FP value. However, should the membrane become more rigid, the movement of the dye is decreased and the FP value increases. As 3 is intrinsically fluorescent and overlaps with the fluorescence excitation/emission properties of the DPH, this SSA and co-formulations incorporating this compound were not included. […]
as §1, with “membrane. […]” for “membrane.”
Preparation of DPH fluorescent labelled vesicles: Lipid films were resuspended in buffer (150 mM KCl, 10 mM HEPES, pH 7.4, 2 mM EGTA) and subjected to 10 freeze-thaw cycles in liquid nitrogen and extruded 20 times through a 200 nm polycarbonate membrane. For fluorescent labelling, the desired vesicles were pre-incubated with DPH (10 µM) at 60 °C for 1 hour.
Membrane fluidity assay: Black bottom 96-well plates were prepared by serially diluting desired SSA in a EtOH: H2O 1:19 solution across the plate, the appropriate DPH labelled vesicles (100 µL, 60 µM) were added to each well to give a total well volume of 200 µL. FP measurements were taken at 25 °C using a 355 nm filter for excitation and a […] for emission. The DPH labelled vesicles were set to a FP value of 100 mP. Data were acquired in endpoint mode. All experiments were repeated in triplicate to ensure experimental reproducibility.

[4] = PE:PG 1:1 vesicles, 1 min (Timepoint 1 in Table S14)
[5] = PE:PG 1:1 vesicles, 5 min (Timepoint 2 in Table S14)
[6] = PE:PG 1:1 vesicles, 10 min (Timepoint 3 in Table S14)
[7] = PE:PG 1:1 vesicles, 15 min (Timepoint 4 in Table S14)
[8] = PE:PG 1:1 vesicles, 20 min (Timepoint 5 in Table S14)
[9] = PE:PG 3:1 vesicles, 1 min (Timepoint 1 in Table S13)
[10] = PE:PG 3:1 vesicles, 5 min (Timepoint 2 in Table S13)
[11] = PE:PG 3:1 vesicles, 10 min (Timepoint 3 in Table S13)
[12] = PE:PG 3:1 vesicles, 15 min (Timepoint 4 in Table S13)
[13] = PE:PG 3:1 vesicles, 20 min (Timepoint 5 in Table S13)
[14] = PG vesicles, 1 min (Timepoint 1 in Table S12), total molar concentration
[15] = PG vesicles, 5 min (Timepoint 2 in Table S12)
[16] = PG vesicles, 10 min (Timepoint 3 in Table S12)
[17] = PG vesicles, 15 min (Timepoint 4 in Table S12)
[18] = PG vesicles, 20 min (Timepoint 5 in Table S12)
[19] = PE:PG 1:1 vesicles with DPH (10 μM)
[20] = PE:PG 3:1 vesicles with DPH (10 μM)

SMILES	EC50 [1, 4]	EC50 [1, 5]	EC50 [1, 6] [mM]	EC50 [1, 7] [mM]	EC50 [1, 8]	EC50 [1, 9] [mM]	EC50 [1, 10] [mM]	EC50 [1, 11] [mM]	EC50 [1, 12]	EC50 [1, 13]	EC50 [1, 14] [mM]	EC50 [1, 15] [mM]	EC50 [1, 16] [mM]	EC50 [1, 17] [mM]	EC50 [1, 18] [mM]	Quantitative 1H NMR (%) Anion [2] [%]	Quantitative 1H NMR (%) Cation [2] [%]	Average FP values [3, 19]	Average FP values [3, 20]	Average FP values ([3]; PG vesicles with DPH (10 μM))
O=C(O)CNc1c(Nc2ccc(C(F)(F)F)cc2)c(=O)c1=O [SSA 5]	> 1.5 mM	0.302 mM	0.129	0.1	0.234 mM	> 1.5	> 1.5	0.683	0.54 mM	0.429 mM	> 1.5	0.641	0.13	0.088	0.061	33	37	146 ± 4	106 ± 7	152 ± 6
Cc1ccc2nc(-c3ccc(NC(=O)NCS(=O)(=O)O)cc3)sc2c1 [SSA 3]	> 1.5 mM	> 1.5 mM	1.33	0.953	0.829 mM	> 1.5	> 1.5	> 1.5	> 1.5 mM	> 1.5 mM	0.867	0.615	0.529	0.15	0.17	37	37	–	–	–
O=c1c(NCCCS(=O)(=O)O)c(Nc2ccc(C(F)(F)F)cc2)c1=O [SSA 4]	> 1.5 mM	> 1.5 mM	0.948	0.675	0.574 mM	> 1.5	> 1.5	1.18	0.95 mM	0.91 mM	1.02	0.396	0.341	0.288	0.218	44	39	151 ± 5	73 ± 14	150 ± 8
O=S(=O)(O)CCCNC(=S)Nc1ccc(C(F)(F)F)cc1 [SSA 1]	0.055 mM and 0.0549 mM	0.01 mM and 0.0095 mM	0.0048	0.002	0.002 mM and 0.0015 mM	0.0302	0.009	0.004	0.002 mM and 0.0022 mM	0.002 mM and 0.0017 mM	0.0677	0.032	0.0156	0.0062	0.0037	33	31	50 ± 1	−9 ± 3	29 ± 1
O=C(O)CNC(=S)Nc1ccc(C(F)(F)F)cc1 [SSA 2]	> 1.5 mM	1.43 mM	0.83	0.661	0.585 mM	> 1.5	> 1.5	> 1.5	> 1.5 mM	1.15 mM	> 1.5	1.14	0.727	0.563	0.49	43	39	−1 ± 1	−40 ± 0	11 ± 8
